SMILES strings stand for the structures.

This data set in a line: Henry solubility constant Hcp at 298.15 K (mol/(m3 Pa)). As to conditions: reference: Dewulf et al. (1995).
As for `Cc1cccc(C)c1` [1,3-dimethylbenzene], the “Henry solubility constant Hcp” value came to 0.0016.

Consider `Cc1ccc(C)cc1` [1,4-dimethylbenzene], for which the “Henry solubility constant Hcp” value was found to be 0.0017. The same measure for `c1ccccc1` [benzene]: 0.0021; for `ClC(Cl)=C(Cl)Cl` [tetrachloroethene]: 0.00069; for `ClC=C(Cl)Cl` [trichloroethene]: 0.0012.

Regarding `ClC(Cl)(Cl)Cl` [tetrachloromethane], the “Henry solubility constant Hcp” value turned out to be 0.00038. The same measure for `Cc1ccccc1` [methylbenzene]: 0.0018; for `CCc1ccccc1` [ethylbenzene]: 0.0015; for `Cc1ccccc1C` [1,2-dimethylbenzene]: 0.0024.

For `CC(Cl)(Cl)Cl` [1,1,1-trichloroethane], the “Henry solubility constant Hcp” value worked out at 0.00067.
